Assay results reported in the supplement of paper PMC10307832.

Columns and labels:
Assay in all cases: relative viability (nuclei count vs DMSO), 5 days (fraction); higher = more cells survive
NCI-H650 = system: NCI-H650
In short: (§1)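 Medians of duplicate plates are given as relative viability. That measure is the nuclei count in treated wells divided by the count in vehicle wells. Counts were taken on 4× images of lung cancer cell lines in 1536-well plates, 5 days after pin-tool dosing the day after seeding with one drug alone or a fixed anchor-drug dose plus five library-drug doses (not always all listed) in √10 steps.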

CAL-12T = system: CAL-12T
In short: as §1

LCLC-103H = system: LCLC-103H
In short: as §1

NCI-H596 = system: NCI-H596
In short: as §1

EPLC-272H = system: EPLC-272H
In short: as §1

NCI-H647 = system: NCI-H647
In short: as §1

HOP-62 = system: HOP-62
In short: as §1

NCI-H2085 = system: NCI-H2085
In short: as §1

NCI-H1563 = system: NCI-H1563
In short: as §1

RERF-LC-KJ = system: RERF-LC-KJ
In short: as §1

NCI-H1993 = system: NCI-H1993
In short: as §1

COR-L 105 = system: COR-L 105
In short: as §1

NCI-H2087 = system: NCI-H2087
In short: as §1

NCI-H1975 = system: NCI-H1975
In short: as §1

PC-14 = system: PC-14
In short: as §1

NCI-H1651 = system: NCI-H1651
In short: as §1

NCI-H3122 = system: NCI-H3122
In short: as §1

NCI-H1395 = system: NCI-H1395
In short: as §1

LXF-289 = system: LXF-289
In short: as §1

NCI-H2023 = system: NCI-H2023
In short: as §1

COR-L23 = system: COR-L23
In short: as §1

SK-MES-1 = system: SK-MES-1
In short: as §1

A-427 = system: A-427
In short: as §1

Compound `CCCCCCCCCCCC1=C(O)C(=O)C=C(O)C1=O` [Embelin] + C[C@]1(O)C[C@@H](c2nc(-c3ccc4ccc(-c5ccccc5)nc4c3)c3c(N)nccn32)C1 [Linsitinib] (partner 1 µM) has a relative viability (NCI-H650; first compound 0.08 µM) of 0.812, a relative viability (NCI-H650; first compound 0.8 µM) of 1.41 and a relative viability (NCI-H650; first compound 2.53 µM) of 0.653. For the same compound, the relative viability (NCI-H650; first compound 8 µM) was 0.716, the relative viability (CAL-12T; first compound 0.08 µM) was 0.783 and the relative viability (CAL-12T; first compound 0.8 µM) was 0.915. The relative viability (CAL-12T; first compound 2.53 µM) was 0.749, the relative viability (CAL-12T; first compound 8 µM) was 0.831 and the relative viability (LCLC-103H; first compound 0.08 µM) was 1.03. The relative viability (LCLC-103H; first compound 0.8 µM) was 1.11, the relative viability (LCLC-103H; first compound 2.53 µM) was 1.1 and the relative viability (LCLC-103H; first compound 8 µM) was 1.03. The relative viability (NCI-H596; first compound 0.08 µM) was 1.11, the relative viability (NCI-H596; first compound 0.8 µM) was 1.14 and the relative viability (NCI-H596; first compound 2.53 µM) was 1.25. For the same compound, the relative viability (NCI-H596; first compound 8 µM) was 1.05, the relative viability (EPLC-272H; first compound 0.08 µM) was 1.31 and the relative viability (EPLC-272H; first compound 0.8 µM) was 1.48. The relative viability (EPLC-272H; first compound 2.53 µM) was 1.32, the relative viability (EPLC-272H; first compound 8 µM) was 1.03 and the relative viability (NCI-H647; first compound 0.08 µM) was 1.31. For the same compound, the relative viability (NCI-H647; first compound 0.8 µM) was 1.27, the relative viability (NCI-H647; first compound 2.53 µM) was 1.32 and the relative viability (NCI-H647; first compound 8 µM) was 1.28. It also gave a relative viability (HOP-62; first compound 0.08 µM) of 0.937, a relative viability (HOP-62; first compound 0.8 µM) of 1.05 and a relative viability (HOP-62; first compound 2.53 µM) of 1.06. The relative viability (HOP-62; first compound 8 µM) was 0.96, the relative viability (NCI-H2085; first compound 0.08 µM) was 0.909 and the relative viability (NCI-H2085; first compound 0.8 µM) was 1.02. For the same compound, the relative viability (NCI-H2085; first compound 2.53 µM) was 0.972, the relative viability (NCI-H2085; first compound 8 µM) was 1.04 and the relative viability (NCI-H1563; first compound 0.08 µM) was 1.14. The relative viability (NCI-H1563; first compound 0.8 µM) was 1.18, the relative viability (NCI-H1563; first compound 2.53 µM) was 1.16 and the relative viability (NCI-H1563; first compound 8 µM) was 1.16. The relative viability (RERF-LC-KJ; first compound 0.08 µM) was 0.905, the relative viability (RERF-LC-KJ; first compound 0.8 µM) was 0.89 and the relative viability (RERF-LC-KJ; first compound 2.53 µM) was 0.961. For the same compound, the relative viability (RERF-LC-KJ; first compound 8 µM) was 0.908, the relative viability (NCI-H1993; first compound 0.08 µM) was 0.734 and the relative viability (NCI-H1993; first compound 0.8 µM) was 0.807. For the same compound, the relative viability (NCI-H1993; first compound 2.53 µM) was 0.764, the relative viability (NCI-H1993; first compound 8 µM) was 0.771 and the relative viability (COR-L 105; first compound 0.08 µM) was 1.02. The relative viability (COR-L 105; first compound 0.8 µM) was 1.33, the relative viability (COR-L 105; first compound 2.53 µM) was 0.88 and the relative viability (COR-L 105; first compound 8 µM) was 0.874. For the same compound, the relative viability (NCI-H2087; first compound 0.08 µM) was 0.998, the relative viability (NCI-H2087; first compound 0.8 µM) was 0.97 and the relative viability (NCI-H2087; first compound 2.53 µM) was 1.01. It also gave a relative viability (NCI-H2087; first compound 8 µM) of 0.916, a relative viability (NCI-H1975; first compound 0.08 µM) of 0.976 and a relative viability (NCI-H1975; first compound 0.8 µM) of 0.994. It also gave a relative viability (NCI-H1975; first compound 2.53 µM) of 1.04, a relative viability (NCI-H1975; first compound 8 µM) of 0.973 and a relative viability (PC-14; first compound 0.08 µM) of 0.921. The relative viability (PC-14; first compound 0.8 µM) was 1, the relative viability (PC-14; first compound 2.53 µM) was 1.06 and the relative viability (PC-14; first compound 8 µM) was 0.972. The relative viability (NCI-H1651; first compound 0.08 µM) was 0.955, the relative viability (NCI-H1651; first compound 0.8 µM) was 1.1 and the relative viability (NCI-H1651; first compound 2.53 µM) was 1.04. The relative viability (NCI-H1651; first compound 8 µM) was 0.878, the relative viability (NCI-H3122; first compound 0.08 µM) was 1.01 and the relative viability (NCI-H3122; first compound 0.8 µM) was 0.946. The relative viability (NCI-H3122; first compound 2.53 µM) was 1.01, the relative viability (NCI-H3122; first compound 8 µM) was 1.12 and the relative viability (NCI-H1395; first compound 0.08 µM) was 1.22. For the same compound, the relative viability (NCI-H1395; first compound 0.8 µM) was 1.38, the relative viability (NCI-H1395; first compound 2.53 µM) was 0.99 and the relative viability (NCI-H1395; first compound 8 µM) was 0.873. The relative viability (LXF-289; first compound 0.08 µM) was 0.991, the relative viability (LXF-289; first compound 0.8 µM) was 0.957 and the relative viability (LXF-289; first compound 2.53 µM) was 1. For the same compound, the relative viability (LXF-289; first compound 8 µM) was 1.01, the relative viability (NCI-H2023; first compound 0.08 µM) was 0.707 and the relative viability (NCI-H2023; first compound 0.8 µM) was 0.66. For the same compound, the relative viability (NCI-H2023; first compound 2.53 µM) was 0.794, the relative viability (NCI-H2023; first compound 8 µM) was 0.609 and the relative viability (COR-L23; first compound 0.08 µM) was 0.896. The relative viability (COR-L23; first compound 0.8 µM) was 1.08, the relative viability (COR-L23; first compound 2.53 µM) was 0.962 and the relative viability (COR-L23; first compound 8 µM) was 1.05. It also gave a relative viability (SK-MES-1; first compound 0.08 µM) of 1.17, a relative viability (SK-MES-1; first compound 0.8 µM) of 1.11 and a relative viability (SK-MES-1; first compound 2.53 µM) of 1.17. It also gave a relative viability (SK-MES-1; first compound 8 µM) of 1.04, a relative viability (A-427; first compound 0.08 µM) of 1.11 and a relative viability (A-427; first compound 0.8 µM) of 1.12. The relative viability (A-427; first compound 2.53 µM) was 1.12 and the relative viability (A-427; first compound 8 µM) was 1.09.
